Source: ChEMBL document CHEMBL1158878, “New phomopsolides from a Penicillium sp” (1997)

Assays:
Format in all cases: functional
[1] = system: Staphylococcus aureus; assay: Antimicrobial activity against Staphylococcus aureus at 100 ug by antimicrobial disk assay; conditions: read-out: IZ
[2] = system: Staphylococcus aureus; assay: Antimicrobial activity against Staphylococcus aureus at 25 ug by antimicrobial disk assay; conditions: read-out: IZ
[3] = system: Staphylococcus aureus; assay: Antimicrobial activity against Staphylococcus aureus at 10 ug by antimicrobial disk assay; conditions: read-out: IZ
[4] = system: Staphylococcus aureus; assay: Antimicrobial activity against Staphylococcus aureus at 10 units by antimicrobial disk assay
[5] = system: Staphylococcus aureus; assay: Antimicrobial activity against Staphylococcus aureus at 30 ug by antimicrobial disk assay; conditions: read-out: IZ
[6] = system: Staphylococcus aureus; assay: Antimicrobial activity against Staphylococcus aureus at 50 ug by antimicrobial disk assay; conditions: read-out: IZ

C/C=C/C1=C(C)C(=O)C(C)(O)O1 (centres undefined)
zone of inhibition at 100 µg/disc [1]: 9 mm

C/C=C(\C)C(=O)O[C@H]1C=CC(=O)O[C@H]1/C=C/C(=O)C(C)O (some centres undefined)
zone of inhibition at 25 µg/disc [2]: 22 mm

CN[C@@H]1[C@H](O[C@H]2[C@H](O[C@H]3[C@H](O)[C@@H](O)[C@H](N=C(N)N)[C@@H](O)[C@@H]3N=C(N)N)O[C@@H](C)[C@]2(O)C=O)O[C@@H](CO)[C@H](O)[C@H]1O [STREPTOMYCIN]
zone of inhibition at 10 µg/disc [3]: 13 mm

CC1(C)S[C@@H]2[C@H](NC(=O)Cc3ccccc3)C(=O)N2[C@H]1C(=O)O [PENICILLIN G]
inhibition zone (IZ) [4]: 22 mm

CN(C)[C@@H]1C(O)=C(C(N)=O)C(=O)[C@@]2(O)C(O)=C3C(=O)c4c(O)cccc4[C@@](C)(O)[C@H]3C[C@@H]12 [TETRACYCLINE]
zone of inhibition at 30 µg/disc [5]: 38 mm

C/C=C(\C)C(=O)O[C@H]1C=CC(=O)O[C@H]1CCC(=O)C(C)O (some centres undefined) [6,7-DIHYDROPHOMOPSOLIDE A]
zone of inhibition at 50 µg/disc [6]: 9 mm

C/C=C(\C)C(=O)O[C@H]1C=CC(=O)O[C@H]1CC[C@H](O)[C@H](C)O [6,7-DIHYDROPHOMOPSOLIDE B]
zone of inhibition at 100 µg/disc [1]: 10 mm

C/C=C(\C)C(=O)O[C@H]1C=CC(=O)O[C@H]1/C=C/[C@H](O)[C@H](C)O [PHOMOPSOLIDE B]
zone of inhibition at 25 µg/disc [2]: 20 mm

C/C=C(\C)C(=O)O[C@H]1C=CC(=O)O[C@H]1/C=C\C(=O)C(C)O (some centres undefined) [PHOMOPSOLIDE A]
zone of inhibition at 25 µg/disc [2]: 22 mm
